Experimental findings from BindingDB's records for PubMed 39026645 (Tianjin University) are described below.

Molecules are shown by their SMILES.

In this experiment the target is T1, Polyphenol oxidase 4 (Agaricus bisporus, UniProt C7FF05).
T1 sequence (C7FF05 whole entry): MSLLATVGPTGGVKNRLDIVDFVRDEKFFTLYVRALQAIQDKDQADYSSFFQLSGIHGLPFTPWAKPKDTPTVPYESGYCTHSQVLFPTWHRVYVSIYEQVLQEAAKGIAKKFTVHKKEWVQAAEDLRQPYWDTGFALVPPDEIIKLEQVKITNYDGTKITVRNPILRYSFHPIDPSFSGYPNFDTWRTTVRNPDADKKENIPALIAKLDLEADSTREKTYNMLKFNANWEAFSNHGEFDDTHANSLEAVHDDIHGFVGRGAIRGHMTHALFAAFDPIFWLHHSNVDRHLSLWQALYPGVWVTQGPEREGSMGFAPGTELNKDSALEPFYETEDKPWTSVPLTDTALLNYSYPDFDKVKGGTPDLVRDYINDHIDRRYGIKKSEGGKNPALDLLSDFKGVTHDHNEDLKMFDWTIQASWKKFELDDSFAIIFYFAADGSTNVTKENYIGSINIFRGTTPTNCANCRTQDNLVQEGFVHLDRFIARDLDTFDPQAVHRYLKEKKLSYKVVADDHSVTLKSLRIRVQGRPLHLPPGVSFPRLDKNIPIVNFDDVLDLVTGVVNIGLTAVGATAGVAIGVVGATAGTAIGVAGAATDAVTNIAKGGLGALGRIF
In words: Inhibition of mushroom tyrosinase.

For `COc1c(O[C@@H]2O[C@H](CO)[C@@H](O)[C@H](O)[C@H]2O)cc2occ(-c3ccc(O)cc3)c(=O)c2c1O` [CHEBI:9428], 2.6 nM corresponded to half-maximal inhibition (IC50).

In turn, `COc1c(O)cc2occ(-c3ccc(O)cc3)c(=O)c2c1O` [Tectorigenin] showed a half-inhibitory concentration (IC50) of 1.4 nM.

For orientation: IC50 means the point on the concentration scale where inhibition reaches its midpoint. A high value points to weaker potency.
